Data taken from publication PMC8333425, “Discovery of a dual Ras and ARF6 inhibitor from a GPCR endocytosis screen” (Nature Communications, 2021).
Several values for one entry are separate records, joined by “and”; a condition that tells them apart may be missing. Identical values can stand only once.

Target: T1, β-arrestin/AP-2 complex (Homo sapiens, UniProt P63010)
T1 construct: expressed in transfected cells; host or cells: HEK293SL
T1 sequence (P63010 1-937): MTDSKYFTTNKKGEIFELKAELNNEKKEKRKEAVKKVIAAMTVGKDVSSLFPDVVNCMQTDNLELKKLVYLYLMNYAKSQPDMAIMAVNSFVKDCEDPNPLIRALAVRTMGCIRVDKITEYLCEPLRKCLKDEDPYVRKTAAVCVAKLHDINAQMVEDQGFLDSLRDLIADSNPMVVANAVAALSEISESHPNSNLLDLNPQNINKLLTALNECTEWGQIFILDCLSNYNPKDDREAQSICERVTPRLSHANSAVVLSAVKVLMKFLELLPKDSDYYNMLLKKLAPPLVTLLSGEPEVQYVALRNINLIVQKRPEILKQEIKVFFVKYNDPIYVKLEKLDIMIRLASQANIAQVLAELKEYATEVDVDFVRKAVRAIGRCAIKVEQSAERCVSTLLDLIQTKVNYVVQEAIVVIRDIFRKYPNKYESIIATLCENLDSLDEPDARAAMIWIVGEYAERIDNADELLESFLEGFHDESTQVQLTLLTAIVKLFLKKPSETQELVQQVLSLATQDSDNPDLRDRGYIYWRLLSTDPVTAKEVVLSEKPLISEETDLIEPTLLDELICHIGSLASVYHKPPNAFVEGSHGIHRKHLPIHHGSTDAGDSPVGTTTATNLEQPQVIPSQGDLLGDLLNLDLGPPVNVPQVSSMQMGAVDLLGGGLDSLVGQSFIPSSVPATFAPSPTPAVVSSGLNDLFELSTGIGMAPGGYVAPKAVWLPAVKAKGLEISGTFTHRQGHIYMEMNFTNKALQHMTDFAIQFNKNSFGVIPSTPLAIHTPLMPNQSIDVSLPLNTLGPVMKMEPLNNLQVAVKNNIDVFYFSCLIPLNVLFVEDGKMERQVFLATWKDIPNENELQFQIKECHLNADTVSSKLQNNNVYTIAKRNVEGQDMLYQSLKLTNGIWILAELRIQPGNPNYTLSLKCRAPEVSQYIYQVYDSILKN
Test: BRET sensor of β-arrestin2 binding to AP-2 (β2-Adaptin-YFP), AT1R-mediated
Format: cell-based
Conditions: for AngII-promoted BRET, binding of β-arrestin2 to AP-2: individual experiments
Protocol: HEK293 cells were transfected with a BRET sensor that monitors the interaction between β-arrestins and the β-appendage of AP-2 (Fig. 2a)[26],[33]. […] The small GTPase ARF6, which binds β-arrestins and facilitates AP-2 and clathrin recruitment at the PM, is also necessary for CCPs initiation and receptor internalization. Therefore, ARF6 activity was assessed using the protein-3 binding domain (PBD) of the golgi-associated, gamma adaptin ear-containing, ARF-binding protein 3 (GGA3) fused to GST (GST-GGA3-PBD) in a pull-down assay, which allows the detection of GTP-bound ARF6 in cells[34] (Fig. 2b). […] This inhibition was selective for ARF6 since 21 had no effect on AT1R-dependent ARF1 activation (Supplementary Fig. 2a). We also devised a BRET assay to quantitatively assess 21’s action on ARF activity. The ARF BRET assay was created using the GGA3-PBD fused to RlucII (GGA3-PBD-RlucII) and the rGFP anchored at the PM (rGFP-CAAX) (Supplementary Fig. 3a). […] 21 blocked ARF’s activation by 40–60% following AT1R stimulation (Fig. 2c).
HEK293SL cells were seeded at a density of 7.5 × 10^5 cells per 100-mm dish and 24 h later, transiently transfected as such. For receptor internalization experiments, cells were transfected with 0.12 μg AT1R-RlucII, B2R-RlucII, or β2AR-RlucII and 0.48 μg of either rGFP-CAAX (to assess removal from the PM) or rGFP-FYVE (to assess accumulation in the endosomes). For β-arrestin recruitment assays, cells were transfected with 0.48 μg of receptor-YFP along with 0.12 μg of β-arrestin-RlucII. For β-arrestin/AP-2 binding experiments, cells were transfected with 1 μg Flag-AT1R, 1 μg β2-Adaptin-YFP, and 0.12 μg β-arrestin2-RlucII. For G protein activation, cells were transfected with 3 μg of sp-Flag-AT1R along with either 4.5 μg of the Gαq-polycistronic BRET sensor or 0.24 μg of the Gαi3-RlucII and 0.6 μg of GFP10-Gγ2 and Gβ1 sensors or 0.12 μg PKN-RBD-RlucII and 0.48 μg of rGFP-CAAX. For PKC activation, cells were transfected with 3 μg of sp-Flag-AT1R and 0.18 μg of the PKC sensor. For GTPase activation experiments, cells were transfected with 1 μg Flag-AT1R, 0.48 μg of rGFP-CAAX, and either 0.12 μg of GGA3-PBD-RlucII, PAK-CRIB-RlucII or Raf-RBD-RlucII. For biosensor validation experiments, cells were additionally transfected with 500 ng Flag-K-Ras-WT, Flag-K-Ras-G12V, Flag-K-Ras-SOS-CAAX, HA-ARF6-WT, HA-ARF6-T27N, Myc-Rac1-WT, Myc-Rac1-Q61L or Myc-Rac1-T17N. For PI3K/Akt activation experiments, cells were transfected with 0.48 μg of rGFP-CAAX and 0.12 μg of Akt (PH)-RlucII. After 18 h of transfection, the media was replaced and cells were divided for subsequent experiments. Cells were detached and seeded onto poly-L-ornithine-coated 96-well flat white bottom plates (BrandTech Scientific) at a density of 2.5 × 10^4 cells per well in media. The next day, cells were washed once with Tyrode’s buffer (140 mM NaCl, 2.7 mM KCl, 1 mM CaCl2, 12 mM NaHCO3, 5.6 mM D-glucose, 0.5 mM MgCl2, 0.37 mM NaH2PO4, 25 mM HEPES, pH 7.4) and left in Tyrode’s buffer. For kinetics of β-arrestin recruitment or β-arrestin binding to receptor and AP-2 experiments, cells were serum starved for 30 min, pretreated with 21 (50 µM) or Barbadin (100 µM) for 30 min, stimulated with 100 nM AngII or 1 µM BK and BRET signals were monitored at indicated times using a Victor X Light plate reader (PerkinElmer). Coelenterazine H (final concentration of 5 µM) was added 3–5 min prior to BRET measurements. Filter set was 460/80 nm and 535/30 nm for detecting the RlucII Renilla luciferase (donor) and YFP (acceptor) light emissions, respectively. The BRET ratio was determined by calculating the ratio of the light emitted by YFP over the light emitted by the RlucII. For G protein activation, cells were serum starved, pretreated with compounds for 30 min, stimulated with 100 nM AngII for 2 min (Gαq, Gαi3, and Rho sensors) or 5 min (PKC sensor). […]

| Structure (SMILES) | AngII-promoted BRET, binding of β-arrestin2 to AP-2 (AngII + Barbadin (100 μM), time 0 min) | AngII-promoted BRET, binding of β-arrestin2 to AP-2 (AngII + Barbadin (100 μM), time 2 min) | AngII-promoted BRET, binding of β-arrestin2 to AP-2 (AngII + Barbadin (100 μM), time 4 min) | AngII-promoted BRET, binding of β-arrestin2 to AP-2 (AngII + Barbadin (100 μM), time 8 min) | AngII-promoted BRET, binding of β-arrestin2 to AP-2 (AngII + Barbadin (100 μM), time 12 min) | AngII-promoted BRET, binding of β-arrestin2 to AP-2 (AngII + Barbadin (100 μM), time 20 min) | AngII-promoted BRET, binding of β-arrestin2 to AP-2 (AngII + Barbadin (100 μM), time 24 min) | inhibition of the formation of the β-arrestin/AP-2 complex mediated by AT1R (Barbadin 100 µM) | inhibition at 50 µM (21 at 50 µM, read-out: inhibition of the AngII-mediated β-arrestin/AP-2 complex formation) | AngII-promoted BRET, binding of β-arrestin2 to AP-2 (AngII + Comp 21 (50μM), time 0 min) | AngII-promoted BRET, binding of β-arrestin2 to AP-2 (AngII + Comp 21 (50μM), time 2 min) | AngII-promoted BRET, binding of β-arrestin2 to AP-2 (AngII + Comp 21 (50μM), time 4 min) | AngII-promoted BRET, binding of β-arrestin2 to AP-2 (AngII + Comp 21 (50μM), time 8 min) | AngII-promoted BRET, binding of β-arrestin2 to AP-2 (AngII + Comp 21 (50μM), time 12 min) | AngII-promoted BRET, binding of β-arrestin2 to AP-2 (AngII + Comp 21 (50μM), time 20 min) | AngII-promoted BRET, binding of β-arrestin2 to AP-2 (AngII + Comp 21 (50μM), time 24 min) |
| --- | --- | --- | --- | --- | --- | --- | --- | --- | --- | --- | --- | --- | --- | --- | --- | --- |
| Nn1cnc2scc(-c3ccc(Cc4ccccc4)cc3)c2c1=O [Barbadin, reference compound] | 0 | 0.00931 and 0.01844 and 0.00859 | 0.01939 and 0.02951 and 0.01857 | 0.01773 and 0.0324 and 0.02267 | 0.01829 and 0.0336 and 0.02027 | 0.02374 and 0.03345 and 0.02061 | 0.01867 and 0.03563 and 0.02365 | more than 50% | – | – | – | – | – | – | – | – |
| CC(C)C(=O)N1CCN(c2ccc(NC(=O)c3cc4ccccc4o3)cc2Cl)CC1 [Compound 21] | – | – | – | – | – | – | – | – | ≤ 20% | 0 | 0.0291 and 0.02266 and 0.02708 | 0.03981 and 0.03342 and 0.03976 | 0.0471 and 0.04211 and 0.04647 | 0.04695 and 0.03931 and 0.04772 | 0.04571 and 0.04297 and 0.04991 | 0.04875 and 0.04367 and 0.04987 |
